Four compounds from article PMC6247689, “Determination of the volatile and polyphenol constituents and the antimicrobial, antioxidant, and tyrosinase inhibitory activities of the bioactive compounds from the by-product of Rosa rugosa Thunb. var. plena Regal tea” (BMC Complementary and Alternative Medicine, 2018) can be followed below.

In experiment [1] the test system is candida albicans (ATCC 10231). The experiment is described as follows: MIC and MFC, broth microdilution. In kind it is cell-based. The note with it: C. albicans; for MIC: 37 °C, 24 h. How it is done: (§1) The antimicrobial activity was measured by the method described by Xue. All standard strains were obtained from the Guangdong Microbiology Culture Center (Guangzhou, China). Listeria ivanovii (ATCC 19119) was cultured in BHI, Salmonella enteritidis enteritidis (ATCC 14028) Staphylococcus aureus (ATCC 25923) and Escherichia coli (ATCC 25922) were cultured in nutrient agar (NA) for 24 h and at 37 °C. candida albicans (ATCC 10231) was cultured in PHB at 37 °C for 24 h. Propionibacterium acnes (ATCC 6919) and Fusobacterium nucleatum (ATCC 10953) were cultured in CDC agar at 37 °C for 48 h in a YQX-II anaerobic incubator (Shanghai, China). The final cell counts in l mL of broth were approximately 10^6 colony-forming units (CFU/mL). A 10 mg/mL solution of miconazole nitrate and hydrochloride tetracycline in water was used as a positive control against fungi and bacteria, respectly.
(§2) The MIC and MBC or MFC values were determined as described previously by Xue. Briefly, 100 μL dilutions (approximately 100,000 CFU/mL) of Staphylococcus aureus, Escherichia coli, Salmonella enteritidis enteritidis, Fusobacterium nucleatum, and Candida albicans in nutrient broth and Listeria ivanovii and Propionibacterium acnes in GMA broth were inoculated into microtiter plates. Then, 100 μL aliquots of the solutions of the test compound were added after a two-fold serial dilution with nutrient broth (from 2 mg/mL to 3 μg/mL). Broths with 5% (v/v) DMSO were used as controls. The petri dishes were incubated at 37 °C for 24 h with the exception of Propionibacterium acnes and Fusobacterium nucleatum, which were incubated at 37 °C for 48 h. The MIC was recorded as the lowest concentration of sample showing no detectable growth. To determine the MBC or MFC values for no bacterial or fungus growth, 10 μL of sub-inhibitory concentrations of the test compounds were incubated on CDC or GMA agar plates for 24 or 48 h. Every determination was carried out in triplicate.
(Dilution methods test growth across graded concentrations, often in twofold steps.)

The subject of experiment [2] is Propionibacterium acnes (ATCC 6919). The experiment is described as follows: MIC and MBC, broth microdilution. In kind it is cell-based. As to conditions: P. acnes; for MIC: anaerobic, 37 °C, 48 h. How it is done: as §1, §2
The test system of experiment [3] is Staphylococcus aureus (ATCC 25923). Put plainly: MIC and MBC, broth microdilution. Type of experiment: cell-based. The note with it: S. aureus; for MIC: 37 °C, 24 h. The procedure: as §1, §2
Experiment [4] deals with Escherichia coli (ATCC 25922). The experiment is described as follows: MIC and MBC, broth microdilution. Type of experiment: cell-based. The note with it: E. coli; for MIC: 37 °C, 24 h. How it is done:
as §1, §2

The subject of experiment [5] is Fusobacterium nucleatum (ATCC 10953). Put plainly: MIC and MBC, broth microdilution. Type of experiment: cell-based. The note with it: F. nucleatum; for MIC: anaerobic, 37 °C, 48 h. The procedure:
as §1, §2

The subject of experiment [6] is Salmonella enteritidis enteritidis (ATCC 14028). Put plainly: MIC and MBC, broth microdilution. In kind it is cell-based. As to conditions: S. enteritidis enteritidis; for MIC: 37 °C, 24 h. The procedure:
as §1, §2

Experiment [7] relates to Listeria ivanovii (ATCC 19119). Put plainly: MIC and MBC, broth microdilution. In kind it is cell-based. As to conditions: L. ivanovii; for MIC: 37 °C, 24 h. The procedure: as §1, §2
Experiment [8] is described as follows: DPPH radical scavenging activity. As to conditions: 30 min in the dark, 517 nm; positive control = ascorbic acid. The procedure:
The antioxidant activity of RFCS and the standards were evaluated by DPPH radical scavenging activity using a slightly modified version of a previously reported method. […] Aliquots (100 μL) of the supernatants were transferred into a 96-well microplate, and the absorbance of each was recorded at 517 nm using a Spectramax Plus384 UV-Vis spectrophotometer (Molecular Devices, Sunnyvale, California, USA). […] The IC50 values, which represent the concentrations of rose samples and standard substance at which 50% of the DPPH radical was inhibited, were determined. The tests were performed in triplicate, and the percentage of DPPH scavenging was calculated using the following equation. Inhibition%=H0-H/H0×100 H:Absorbance of RFCS and the standards;H0:Absorbance of the blank

Another experiment has as its target mushroom tyrosinase. The experiment is described as follows: Tyrosinase inhibitory activity (spectrophotometric, DOPA substrate). In kind it is biochemical. As to conditions: pH 6.8, 37 °C, 15 min, positive control = kojic acid. How it is done: The reaction mixture was vortexed and maintained at 37 °C for 15 min, and then the absorption maximum of dopachrome (set at 479 nm) was measured using a microplate reader (Molecular Devices, Sunnyvale, California, USA). The tests were performed in triplicate, and the value of tyrosinase inhibition activity was calculated as described above.

A short description of the next experiment: ABTS radical scavenging. The note with it: 30 °C, 30 min; positive control = Trolox. How it is done:
The ABTS assay of RFCS was performed according to a modified version of a previously reported method. Briefly, the stock solutions were generated by mixing equal quantities of 7.4 mM ABTS^●+ solution and 2.6 mM potassium persulfate solution, and the mixture was incubated at room temperature for 12 h in the dark. Then, the solution was equilibrated with 1 mL of ABTS^●+ solution with 50% ethanol serving as a positive control. The absorbance of the solution at 734 nm was 1.17 ± 0.02 units. […] The mixture was mixed vigorously and incubated at 30 °C for 30 min. The absorbance was then measured at […] using the spectrophotometer. […] Inhibition%=Absorbance of blank-Absorbance of sample/Absorbance of blank×100

Setting [9] is: Candida albicans, ATCC10231, read-out: MIC.
Setting [10] is: Candida albicans, ATCC10231, read-out: MFC.
[11] abbreviates: Cutibacterium acnes, ATCC6919, read-out: MIC.
The mark [12] stands for this setting: Cutibacterium acnes, ATCC6919, read-out: MBC.
The mark [13] stands for this setting: Staphylococcus aureus, ATCC25923, read-out: MIC.
The mark [14] stands for this setting: Staphylococcus aureus, ATCC25923, read-out: MBC.
Setting [15] is: Escherichia coli, ATCC25922, read-out: MIC.
[16] abbreviates: Escherichia coli, ATCC25922, read-out: MBC.
The mark [17] stands for this setting: Fusobacterium nucleatum, ATCC10953, read-out: MIC.
The mark [18] stands for this setting: Fusobacterium nucleatum, ATCC10953, read-out: MBC.
[19] abbreviates: Salmonella enterica, read-out: MIC.
The mark [20] stands for this setting: Salmonella enterica, read-out: MBC.
Setting [21] is: Listeria ivanovii, ATCC19119, read-out: MIC.
The mark [22] stands for this setting: Listeria ivanovii, ATCC19119, read-out: MBC.

Converted amounts (≈) assume the structure as drawn. Like-named read-outs stand apart in the source and are kept apart here. Some results are limits rather than exact numbers.

As for `OCCc1ccccc1` [Phenylethyl alcohol], the MIC came to 250 µg/mL (≈ 2050 µM) in experiment [1] (setting [9]); 125 µg/mL (≈ 1020 µM) in [2] (setting [11]); 125 µg/mL (≈ 1020 µM) in experiment [3] (setting [13]); 250 µg/mL (≈ 2050 µM) in experiment [4] (setting [15]); 8 µg/mL (≈ 65.5 µM) in [5] (setting [17]); 125 µg/mL (≈ 1020 µM) in experiment [6] (setting [19]). In [7] (setting [21]), the minimal inhibitory concentration (MIC) worked out at 250 µg/mL (≈ 2050 µM). The MFC in experiment [1] (setting [10]) stood at 500 µg/mL (≈ 4090 µM). In addition, the MBC in experiment [2] (setting [12]) stood at 500 µg/mL (≈ 4090 µM); in experiment [3] (setting [14]) it was 250 µg/mL (≈ 2050 µM); in experiment [4] (setting [16]), 1000 µg/mL (≈ 8190 µM); in experiment [5] (setting [18]) it was 32 µg/mL (≈ 262 µM); in experiment [6] (setting [20]) it was 500 µg/mL (≈ 4090 µM); in [7] (setting [22]), 500 µg/mL (≈ 4090 µM). Besides, in experiment [8], the “DPPH radical scavenging activity IC50” value is > 10,000 a μg/mL. For the same compound, the “Tyrosinase inhibition IC50” value at mushroom tyrosinase is listed as 315 ± 13 b μg/mL. Besides, the “ABTS radical scavenging activity IC50” value in “ABTS radical scavenging” was > 10,000 a μg/mL.

For the compound `C[C@@H]1O[C@@H](OC[C@H]2O[C@@H](Oc3c(-c4ccc(O)c(O)c4)oc4cc(O)cc(O)c4c3=O)[C@H](O)[C@@H](O)[C@@H]2O)[C@H](O)[C@H](O)[C@H]1O` [Rutin], the MIC in experiment [1] (setting [9]) came out at 500 µg/mL (≈ 819 µM); in experiment [2] (setting [11]) it was 125 µg/mL (≈ 205 µM); in experiment [3] (setting [13]), 250 µg/mL (≈ 409 µM); in experiment [4] (setting [15]), 250 µg/mL (≈ 409 µM); in experiment [5] (setting [17]), 62 µg/mL (≈ 102 µM); in experiment [6] (setting [19]), 125 µg/mL (≈ 205 µM). For the same compound, the MIC in experiment [7] (setting [21]) came out at 500 µg/mL (≈ 819 µM). Moreover, the MFC in experiment [1] (setting [10]) was found to be 1000 µg/mL (≈ 1640 µM). Further, the MBC in experiment [2] (setting [12]) is 250 µg/mL (≈ 409 µM); in experiment [3] (setting [14]) it was 500 µg/mL (≈ 819 µM); in experiment [4] (setting [16]) it was 1000 µg/mL (≈ 1640 µM); in experiment [5] (setting [18]), 500 µg/mL (≈ 819 µM); in experiment [6] (setting [20]), 500 µg/mL (≈ 819 µM); in experiment [7] (setting [22]) it was 1000 µg/mL (≈ 1640 µM). Also, the “DPPH radical scavenging activity IC50” value in [8] was determined as 0.715 ± 0.017 c μg/mL. For the same compound, the Tyrosinase inhibition IC50 was 0.856 ± 0.014 µg/mL at mushroom tyrosinase and less than 1 µg/mL on mushroom tyrosinase (listed as rutin). The “ABTS radical scavenging activity IC50” value in “ABTS radical scavenging” amounted to 0.621 ± 0.024 c μg/mL.

Regarding `CC(C)=CCC[C@](C)(O)[C@@H]1CC=C(C)CC1` [α-bisabolol], the MIC is 1000 µg/mL (≈ 4500 µM) in [1] (setting [9]); 125 µg/mL (≈ 562 µM) in [2] (setting [11]); 250 µg/mL (≈ 1120 µM) in experiment [3] (setting [13]); 500 µg/mL (≈ 2250 µM) in experiment [4] (setting [15]); 8 µg/mL (≈ 36 µM) in experiment [5] (setting [17]); 500 µg/mL (≈ 2250 µM) in experiment [6] (setting [19]). Moreover, the MIC in experiment [7] (setting [21]) was 8 µg/mL (≈ 36 µM). Moreover, the MFC in experiment [1] (setting [10]) is more than 1000 µg/mL. Further, the MBC was 500 µg/mL (≈ 2250 µM) in experiment [2] (setting [12]); 1000 µg/mL (≈ 4500 µM) in experiment [3] (setting [14]); 1000 µg/mL (≈ 4500 µM) in experiment [4] (setting [16]); 32 µg/mL (≈ 144 µM) in [5] (setting [18]); more than 1000 µg/mL in experiment [6] (setting [20]); 32 µg/mL (≈ 144 µM) in experiment [7] (setting [22]). Further, the “DPPH radical scavenging activity IC50” value in [8] is > 10,000 a μg/mL. Further, the “Tyrosinase inhibition IC50” value at mushroom tyrosinase is 635 ± 22 a μg/mL. Further, the “ABTS radical scavenging activity IC50” value in the experiment “ABTS radical scavenging” was > 10,000 a μg/mL.

Regarding Kaempferol-3-O-Rutinoside, the MFC in [1] stood at 1000 µg/mL. Also, the minimal inhibitory concentration (MIC) in experiment [1] came out at 250 µg/mL; in [2], 500 µg/mL; in experiment [3], 250 µg/mL; in experiment [4], 500 µg/mL; in experiment [5], 500 µg/mL; in experiment [6], 500 µg/mL. Also, the MIC in [7] is 500 µg/mL. Also, the minimal bactericidal concentration (MBC) in experiment [2] was 1000 µg/mL; in experiment [3] it was 1000 µg/mL; in experiment [4], more than 1000 µg/mL; in experiment [5], more than 1000 µg/mL; in [6], more than 1000 µg/mL; in experiment [7], 1000 µg/mL. In addition, the “DPPH radical scavenging activity IC50” value in [8] is given as 0.808 ± 0.024 c μg/mL. In addition, the values for the Tyrosinase inhibition IC50 at mushroom tyrosinase and at mushroom tyrosinase (listed as kaempferol-3-O-rutinosid) were 0.908 ± 0.021 µg/mL and less than 1 µg/mL, respectively. Also, the “ABTS radical scavenging activity IC50” value in the experiment “ABTS radical scavenging” came to 0.719 ± 0.016 c μg/mL.

What is called MIC is the lowest concentration found to suppress growth. As usually defined, the MFC is the smallest concentration meeting the test's criterion for killing the fungus. A word on the MBC: it is the smallest concentration meeting the test's criterion for killing.
